Measured values: paper PMC12629169, “Antiaging, Wound‐Healing Properties and Chemical Characterization of Crude Hydroalcoholic Extract and Fractions of Myrcia neoobscura” (Chemistry & Biodiversity, 2025)
Values after ≈ are worked out from the molar mass of the structure shown.

Target: T1, collagenase
T1 construct: gene colG
Assay: ninhydrin colorimetric gelatin hydrolysis
Type: biochemical
Conditions: gelatin substrate, Tris-HCl pH 7.5, 5 mM CaCl2, 1 µM ZnCl2, 37°C

O=C(O)c1cc(O)c(O)c(O)c1 [compound 1, gallic acid]
IC50: 108.88 ± 12.71 µg/mL (≈ 640 µM)
